Test results taken from US20260158011A1 (Achieve Life Sciences, Inc., priority 2023, published 2026).
Where two headings read alike, the source gives them in different places.

Columns and labels:
adult e-cigarette users = details: for Saliva Cotinine Actual Value, Mean / Saliva Cotinine Actual Value, Median / Saliva Cotinine Change from Baseline, Mean / Saliva Cotinine Change from Baseline, Median: 12 Weeks arm, All Randomized Set; for Saliva Cotinine Change from Baseline, LS Means / Saliva Cotinine Change from Baseline, LS Means Difference from Placebo: repeated-measures ANOVA
Excerpt: A second measurement consisted of biochemically verified continuous vaping abstinence at any time during treatment, with vaping abstinence at Week 3-6 or Week 6-9 for of cytisinicline treatment vs placebo. 7-day point prevalence rates were compared for vaping abstinence (Week 2 to 12) (FIG. 62). An additional measurement included reduction in daily vaping as measured by cotinine, where cytisinicline treatment vs placebo for a reduction in nicotine vaping using weekly quantitative cotinine levels from Week 2 to Week 12. Safety was assessed by adverse effects and serious adverse effects, considering number, severity, and attribution to study drug.
Cotinine: The data were analyzed by visit and also using a repeated measures model. […] Cotinine values less than 1 were converted to 1 due to asymmetry.

[1] = system: adults who smoked 10 cigarettes per day
Experimental: Safety was assessed by measurement of vital signs and participant self-report of adverse events and concomitant medications on day 2 and at weekly visits during treatment from week 1 to 12 and through an additional 12-week follow-up. Hematology and chemistry laboratory tests were done at weeks 1, 6, and 12. Electrocardiograms were done at weeks 6 and 12. Clinically significant adverse events or abnormalities were followed until resolution or end of study.
The study had two primary endpoints. […] Study success was defined as either primary endpoint meeting statistical criterion. The secondary outcome measures were verified continuous cigarette abstinence to week 24 (weeks 3 to 24 for Arms B vs. A; weeks 9 to 24 for Arms C vs. A). A third secondary outcome measure compared the risk of relapse to smoking between weeks 6 and 24 among participants assigned to cytisinicline who achieved abstinence by week 6; these individuals were either switched to placebo at week 6 (Arm B) or continued cytisinicline to week 12 (Arm C). Other pre-specified endpoints included comparing the difference between arms in verified 7-day point-prevalence abstinence at each visit from week 2 through week 24 and assessing for evidence of effect modification for subsets defined by baseline attributes. To assess cigarette craving between groups, the Brief Questionnaire of Smoking Urges (QSU-brief) was administered at clinic visits on Day 0 and at Weeks 1 to 6 (4, 5). Safety outcomes included the incidence of treatment-emergent serious and non-serious adverse events during treatment with cytisinicline or placebo and clinically-significant changes in vital signs, laboratory tests or electrocardiograms.
Analyses for the binary primary and secondary outcomes were based on exact analyses 2×2 tables stratified by clinical site. Missed assessments of primary and secondary endpoints were imputed as non-success, thereby enabling analyses following the intent-to-treat principle. The Hochberg procedure was used to control for multiplicity (6). A target sample of 750 participants (n=250 per arm) was computed and verified using simulations to provide 96% power for specifications of an overall one-sided 0.025 type I error probability and success probabilities of 7% for placebo and 19% for cytisinicline. Sensitivity analyses included assessments of effect modification related to subsets defined by baseline attributes using logistic and cumulative logit models. Longitudinal analyses used Mixed Model for Repeated Measures methodology (7). Safety analyses included all randomized participants who received at least one dose of study drug. Analyses were conducted by BB.

[2] = Arm B Cytisinicline 6 weeks + placebo 6 weeks, N = 269
[3] = Arm B Cytisinicline 6 weeks + placebo 6 weeks, of 459 events
[4] = Arm C Cytisinicline 12 weeks, N = 270
[5] = Arm C Cytisinicline 12 weeks, of 494 events

SMILES: O=c1cccc2n1C[C@@H]1CNC[C@H]2C1 [cytisine, (−)-Cytisine]
- Saliva Cotinine Actual Value, Mean (adult e-cigarette users; Week 2): 133.598 ng/mL
- Saliva Cotinine Actual Value, Median (adult e-cigarette users; Week 2): 70.200 ng/mL
- Saliva Cotinine Change from Baseline, Mean (adult e-cigarette users; Week 2): -185.522 ng/mL
- Saliva Cotinine Change from Baseline, Median (adult e-cigarette users; Week 2): -182.015 ng/mL
- Saliva Cotinine Change from Baseline, LS Means (adult e-cigarette users; Week 2): -181.306 ng/mL
- Saliva Cotinine Change from Baseline, LS Means Difference from Placebo (adult e-cigarette users; Week 2): -32.506 ng/mL
- Saliva Cotinine Actual Value, Mean (adult e-cigarette users; Week 3): 112.224 ng/mL
- Saliva Cotinine Actual Value, Median (adult e-cigarette users; Week 3): 2.495 ng/mL
- Saliva Cotinine Change from Baseline, Mean (adult e-cigarette users; Week 3): -210.563 ng/mL
- Saliva Cotinine Change from Baseline, Median (adult e-cigarette users; Week 3): -210.500 ng/mL
- Saliva Cotinine Change from Baseline, LS Means (adult e-cigarette users; Week 3): -205.329 ng/mL
- Saliva Cotinine Change from Baseline, LS Means Difference from Placebo (adult e-cigarette users; Week 3): -72.832 ng/mL
- Saliva Cotinine Actual Value, Mean (adult e-cigarette users; Week 4): 112.055 ng/mL
- Saliva Cotinine Actual Value, Median (adult e-cigarette users; Week 4): 1.710 ng/mL
- Saliva Cotinine Change from Baseline, Mean (adult e-cigarette users; Week 4): -206.833 ng/mL
- Saliva Cotinine Change from Baseline, Median (adult e-cigarette users; Week 4): -203.500 ng/mL
- Saliva Cotinine Change from Baseline, LS Means (adult e-cigarette users; Week 4): -202.672 ng/mL
- Saliva Cotinine Change from Baseline, LS Means Difference from Placebo (adult e-cigarette users; Week 4): -74.090 ng/mL
- Saliva Cotinine Actual Value, Mean (adult e-cigarette users; Week 5): 111.201 ng/mL
- Saliva Cotinine Actual Value, Median (adult e-cigarette users; Week 5): 1.565 ng/mL
- Saliva Cotinine Change from Baseline, Mean (adult e-cigarette users; Week 5): -204.721 ng/mL
- Saliva Cotinine Change from Baseline, Median (adult e-cigarette users; Week 5): -187.000 ng/mL
- Saliva Cotinine Change from Baseline, LS Means (adult e-cigarette users; Week 5): -201.526 ng/mL
- Saliva Cotinine Change from Baseline, LS Means Difference from Placebo (adult e-cigarette users; Week 5): -83.364 ng/mL
- Saliva Cotinine Actual Value, Mean (adult e-cigarette users; Week 6): 123.705 ng/mL
- Saliva Cotinine Actual Value, Median (adult e-cigarette users; Week 6): 1.480 ng/mL
- Saliva Cotinine Change from Baseline, Mean (adult e-cigarette users; Week 6): -199.608 ng/mL
- Saliva Cotinine Change from Baseline, Median (adult e-cigarette users; Week 6): -168.500 ng/mL
- Saliva Cotinine Change from Baseline, LS Means (adult e-cigarette users; Week 6): -196.960 ng/mL
- Saliva Cotinine Change from Baseline, LS Means Difference from Placebo (adult e-cigarette users; Week 6): -79.952 ng/mL
- Saliva Cotinine Actual Value, Mean (adult e-cigarette users; Week 7): 133.054 ng/mL
- Saliva Cotinine Actual Value, Median (adult e-cigarette users; Week 7): 0 ng/mL
- Saliva Cotinine Change from Baseline, Mean (adult e-cigarette users; Week 7): -181.605 ng/mL
- Saliva Cotinine Change from Baseline, Median (adult e-cigarette users; Week 7): -184.000 ng/mL
- Saliva Cotinine Change from Baseline, LS Means (adult e-cigarette users; Week 7): -179.597 ng/mL
- Saliva Cotinine Change from Baseline, LS Means Difference from Placebo (adult e-cigarette users; Week 7): -49.309 ng/mL
- Saliva Cotinine Actual Value, Mean (adult e-cigarette users; Week 8): 125.966 ng/mL
- Saliva Cotinine Actual Value, Median (adult e-cigarette users; Week 8): 0 ng/mL
- Saliva Cotinine Change from Baseline, Mean (adult e-cigarette users; Week 8): -188.539 ng/mL
- Saliva Cotinine Change from Baseline, Median (adult e-cigarette users; Week 8): -194.655 ng/mL
- Saliva Cotinine Change from Baseline, LS Means (adult e-cigarette users; Week 8): -192.048 ng/mL
- Saliva Cotinine Change from Baseline, LS Means Difference from Placebo (adult e-cigarette users; Week 8): -78.107 ng/mL
- Saliva Cotinine Actual Value, Mean (adult e-cigarette users; Week 9): 121.622 ng/mL
- Saliva Cotinine Actual Value, Median (adult e-cigarette users; Week 9): 2.030 ng/mL
- Saliva Cotinine Change from Baseline, Mean (adult e-cigarette users; Week 9): -202.849 ng/mL
- Saliva Cotinine Change from Baseline, Median (adult e-cigarette users; Week 9): -199.000 ng/mL
- Saliva Cotinine Change from Baseline, LS Means (adult e-cigarette users; Week 9): -195.014 ng/mL
- Saliva Cotinine Change from Baseline, LS Means Difference from Placebo (adult e-cigarette users; Week 9): -86.006 ng/mL
- Saliva Cotinine Actual Value, Mean (adult e-cigarette users; Week 10): 127.718 ng/mL
- Saliva Cotinine Actual Value, Median (adult e-cigarette users; Week 10): 4.100 ng/mL
- Saliva Cotinine Change from Baseline, Mean (adult e-cigarette users; Week 10): -200.886 ng/mL
- Saliva Cotinine Change from Baseline, Median (adult e-cigarette users; Week 10): -197.500 ng/mL
- Saliva Cotinine Change from Baseline, LS Means (adult e-cigarette users; Week 10): -196.615 ng/mL
- Saliva Cotinine Change from Baseline, LS Means Difference from Placebo (adult e-cigarette users; Week 10): -62.680 ng/mL
- Saliva Cotinine Actual Value, Mean (adult e-cigarette users; Week 11): 137.834 ng/mL
- Saliva Cotinine Actual Value, Median (adult e-cigarette users; Week 11): 10.900 ng/mL
- Saliva Cotinine Change from Baseline, Mean (adult e-cigarette users; Week 11): -187.683 ng/mL
- Saliva Cotinine Change from Baseline, Median (adult e-cigarette users; Week 11): -177.500 ng/mL
- Saliva Cotinine Change from Baseline, LS Means (adult e-cigarette users; Week 11): -186.878 ng/mL
- Saliva Cotinine Change from Baseline, LS Means Difference from Placebo (adult e-cigarette users; Week 11): -63.262 ng/mL
- Saliva Cotinine Actual Value, Mean (adult e-cigarette users; Week 12): 157.889 ng/mL
- Saliva Cotinine Actual Value, Median (adult e-cigarette users; Week 12): 36.550 ng/mL
- Saliva Cotinine Change from Baseline, Mean (adult e-cigarette users; Week 12): -172.588 ng/mL
- Saliva Cotinine Change from Baseline, Median (adult e-cigarette users; Week 12): -178.000 ng/mL
- Saliva Cotinine Change from Baseline, LS Means (adult e-cigarette users; Week 12): -167.731 ng/mL
- Saliva Cotinine Change from Baseline, LS Means Difference from Placebo (adult e-cigarette users; Week 12): -57.329 ng/mL
- Saliva Cotinine Actual Value, Mean (adult e-cigarette users; Week 16): 181.742 ng/mL
- Saliva Cotinine Actual Value, Median (adult e-cigarette users; Week 16): 140.000 ng/mL
- Saliva Cotinine Change from Baseline, Mean (adult e-cigarette users; Week 16): -146.358 ng/mL
- Saliva Cotinine Change from Baseline, Median (adult e-cigarette users; Week 16): -116.000 ng/mL
- Saliva Cotinine Change from Baseline, LS Means (adult e-cigarette users; Week 16): -145.035 ng/mL
- Saliva Cotinine Change from Baseline, LS Means Difference from Placebo (adult e-cigarette users; Week 16): -54.792 ng/mL
- Treatment-emergent adverse events reported ([1]; 6-week cytisinicline arm): 172 (63.9%) participants (%)
- Treatment-emergent adverse events reported ([1]; 12-week cytisinicline arm): 184 (68.2%) participants (%)
- OR for serious adverse events, cytisinicline versus placebo ([1]; 539 cytisinicline vs 270 placebo participants): 3.08
- Study drug discontinuation due to adverse events ([1]; Arm B): 2.6%
- Number of treatment emergent adverse events [1, 2]: 459
- Participants with Abnormal dreams (treatment-emergent adverse event), % [1, 2]: 8.2%
- Participants with Anxiety (treatment-emergent adverse event), % [1, 2]: 2.6%
- Participants with Constipation (treatment-emergent adverse event), % [1, 2]: 5.9%
- Participants with Diarrhea (treatment-emergent adverse event), % [1, 2]: 3.7%
- Participants with Headache (treatment-emergent adverse event), % [1, 2]: 6.7%
- Participants with Insomnia (treatment-emergent adverse event), % [1, 2]: 8.6%
- Participants with Nausea (treatment-emergent adverse event), % [1, 2]: 5.9%
- Participants with any serious adverse event, % [1, 2]: 3.7%
- Participants with any treatment emergent adverse event, % [1, 2]: 63.9%
- Participants with any treatment-related serious adverse event, % [1, 2]: 0%
- Treatment emergent adverse events, Mild, % [1, 3]: 63.2%
- Treatment emergent adverse events, Moderate, % [1, 3]: 32.2%
- Treatment emergent adverse events, Severe, % [1, 3]: 4.6%
- Study drug discontinuation due to adverse events ([1]; Arm C): 3.7%
- Number of treatment emergent adverse events [1, 4]: 494
- Participants with Abnormal dreams (treatment-emergent adverse event), % [1, 4]: 7.8%
- Participants with Anxiety (treatment-emergent adverse event), % [1, 4]: 5.6%
- Participants with Constipation (treatment-emergent adverse event), % [1, 4]: 4.8%
- Participants with Diarrhea (treatment-emergent adverse event), % [1, 4]: 4.4%
- Participants with Headache (treatment-emergent adverse event), % [1, 4]: 7.8%
- Participants with Insomnia (treatment-emergent adverse event), % [1, 4]: 9.6%
- Participants with Nausea (treatment-emergent adverse event), % [1, 4]: 5.6%
- Participants with any serious adverse event, % [1, 4]: 3.0%
- Participants with any treatment emergent adverse event, % [1, 4]: 68.2%
- Participants with any treatment-related serious adverse event, % [1, 4]: 0%
- Treatment emergent adverse events, Mild, % [1, 5]: 61.3%
- Treatment emergent adverse events, Moderate, % [1, 5]: 36.0%
- Treatment emergent adverse events, Severe, % [1, 5]: 2.6%
- Treatment-related SAEs ([1]; all arms): No SAE was judged to be treatment-related
- Serious adverse events (SAEs) ([1]; of 539 participants on cytisinicline): 18 (3.3%) participants (%)
- Study drug discontinuation due to adverse events ([1]; of 539 participants receiving cytisinicline (Arms B and C)): 17 (3.2%) participants (%)
